According to PMC12040169 (PLOS Biology, 2025):

Assay: in vitro
Settings: human, hela cells, % viability

| SMILES | viability at 28.5 h, 10 µM [%] |
| --- | --- |
| CC(C)c1n[nH]c(=S)n1C1CCc2ccccc21 (stereo not drawn) [CBK288374] | 87.1 |
| CCNC1(Cc2cc(C(=O)N3CCCCC3)on2)COC1 [CBK289671] | 84.2 |
| Cc1ccccc1C(=O)Nc1cc(NC(=O)c2ccccc2C)cc(C(=O)O)c1 [CBK262007] | 109 |
| O=C(Oc1ccc(F)cc1C(=O)/C=C/c1ccccc1F)c1cccc([N+](=O)[O-])c1 [CBK264859] | 86.9 |
| CCn1c(SCC(=O)Nc2cc(C)ccc2F)nnc1-c1ccccc1O [CBK269532] | 91.4 |
| O=C(CSc1ccc2ccccc2n1)NNC(=O)c1cccc([N+](=O)[O-])c1 [CBK262506] | 91.7 |
| COc1ccc(CCNC(=S)NN2CCN(C)CC2)cc1OC [CBK266884] | 93.2 |
| CC(C)(C)OC(=O)NCc1ccc(CNCc2cc(F)cc(F)c2)cc1 [CBK056707] | 107 |
| COc1ccc(-c2ccc3nnc(SCc4cccnc4)n3n2)cc1 [CBK287680] | 108 |
| O=C(CSc1nc2ccccc2[nH]1)c1ccc2ccccc2c1 [CBK261739] | 104 |
| Cc1cccc(NC2=NC(=O)/C(=C\c3ccc(Cl)cc3)S2)c1C [CBK263619] | 101 |
| O=C(Nc1ccc(OCc2ccccc2F)cc1)c1ccc(-n2cnnc2)cc1 [CBK285816] | 81.4 |
| O=C(O)C1CCN(c2ncnc3scc(-c4ccccc4)c23)CC1 [CBK076784] | 95.6 |
| CC1(C)CC(=O)c2sc(NC(=O)c3ccc(Oc4ccccc4)cc3)nc2C1 [CBK144106] | 95.5 |
| COc1cccc(CNc2ccc(S(N)(=O)=O)cc2)c1OCc1ccccc1F [CBK267906] | 108 |
| CSc1nnc(-c2ccc(Br)cc2)o1 [CBK026502] | 91.9 |
| CC(C)[C@H](CO)Nc1nc(-c2ccc(F)c(Cl)c2)cnc1N [CBK063949] | 109 |
| NC(=O)CN1CCCN(c2nccc(OCC3COc4ccccc4O3)n2)CC1 (stereo not drawn) [CBK084041] | 115 |
| Cc1ccc(Cl)cc1N(CC(=O)Nc1ccccc1C(=O)O)S(C)(=O)=O [CBK264020] | 89.5 |
| NC1=NC(=O)C2(COC(c3cccnc3)OC2)S1 (stereo not drawn) [CBK019981] | 91.3 |
| CCOC(=O)c1cnc2cc(C)ccn2c1=O [CBK086650] | 93.1 |
| O=c1[nH]c(=O)n([C@@H]2O[C@H](CO)[C@H](O)C2O)cc1Br (stereo partly drawn) [CBK201180] | 87.2 |
| O=C(Nc1ccncc1)c1cc2cc(Cl)ccc2[nH]1 [CBK107340] | 95 |

| SMILES | viability at 28.5 h, 10 µM [%] |
| --- | --- |
| CCc1nn2c(C3CCNCC3)ccnc2c1-c1cccs1 [CBK284226] | 80.4 |
| Cc1ccc2cn[nH]c2c1 [CBK016109] | 123 |
| O=C(COc1ccccc1)NC(/C=C/c1ccccc1)c1cc(Cl)c2cccnc2c1O (stereo not drawn) [CBK263994] | 104 |
| COc1ccc(NC(=O)CCCSc2nc(N)c3c(C)c(C)sc3n2)cc1 [CBK266547] | 105 |
| Cc1cc(C)n(CC(=O)N[C@H]2CC[C@H]2N)c(=O)n1 [CBK307647] | 91.9 |
| Cc1cccc(NC(=O)CC(C(=O)O)N2CCOCC2)c1 (stereo not drawn) [CBK266925] | 96.3 |
| N#Cc1ccc(NCc2ccccc2CN2CCCC2CO)cn1 (stereo not drawn) [CBK304077] | 97.9 |
| COc1ccc(Nc2cccc(-c3ccc(CCC(=O)O)cc3)n2)cc1 [CBK036943] | 106 |
| CC1CC1C(=O)N1CCCC(c2cc3cccnc3[nH]2)C1 (stereo not drawn) [CBK282156] | 80.3 |
| Cc1cc(C(=O)N2CCC(c3nccn3C)CC2)ccc1F [CBK304355] | 89.7 |
| Cc1c(C(=O)O)sc(S(=O)(=O)N2CCN(C(=O)Cc3ccsc3)CC2)c1C(=O)O [CBK297134] | 89.8 |
| CSc1nnc(CC2CCN(C(=O)Cn3nnnc3N)CC2)n1C [CBK306520] | 97.6 |
| CCN1CCCC(CNS(=O)(=O)c2cc(-n3cccn3)ccc2OC)C1 (stereo not drawn) [CBK306997] | 85.3 |
| COc1cncc(-c2cc(Nc3cc(OC)c(OC)cc3C)ncn2)c1 [CBK090782] | 84.9 |
| Cc1nc2ccccn2c1-c1csc(Nc2cccc(C(=O)O)c2)n1 [CBK263303B] | 92.7 |
| O=C1CCC[C@]2(CN(C(=O)C3CC3)C[C@H]2c2ccc(F)c(F)c2)N1 [CBK283364] | 111 |
| O=C(OCc1ccccc1)N1CCC2(CC1)CN(c1ccc(C(F)(F)F)cn1)CCO2 [CBK161116T] | 95.8 |
| COc1ccccc1NC(=O)C(=O)NCc1cccnc1 [CBK287724] | 97.5 |
| O=C(Nc1ccc(S(=O)(=O)N2CCOCC2)cc1)c1cc(-c2ccccc2)nc2ccccc12 [CBK264790] | 103 |
| CC(C)(O)c1cc(CC2(NCc3ccc(Cl)cc3)COC2)no1 [CBK289254] | 80.1 |
| Cc1ccc(-c2cc(C(=O)NCCCN3CCOCC3)c3cc(Cl)ccc3n2)o1 [CBK267737] | 108 |
| CC(c1ccc(F)c(F)c1)N(C)C(=O)Cn1[nH]c(=O)ccc1=O (stereo not drawn) [CBK305810] | 81.2 |
